Test results reported in patent publication US11051515B2, “3-acyl-benzamides and their use as herbicides” (Bayer Aktiengesellschaft, priority 2017, dated 2021).

Assays:
VERPE [1] = assay: Pre-emergence action against VERPE; format: in vivo, Veronica persica; conditions: Dosage 320 g/ha, pre-emergence
Summary of the method: (§1)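 Seeds sown in sandy loam in wood-fiber pots and covered with soil. Greenhouse growth; visual damage scored after 3 weeks versus untreated controls (100% = dead, 0% = like control).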

VIOTR [2] = assay: Post-emergence action against VIOTR; format: in vivo, Viola tricolor; conditions: post-emergence, dosage 80 g/ha
Summary of the method: (§2)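 Post-emergence foliar spray on greenhouse plants at the one-leaf stage, using wettable-powder or emulsion-concentrate formulations in water (600 to […], plus 0.2% wetting agent). Damage scored by eye roughly 3 weeks later against untreated plants: 0% = like control, 100% = dead.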

MATIN [3] = assay: Post-emergence action against MATIN; format: in vivo, Matricaria inodora; conditions: post-emergence, dosage 80 g/ha, visual assessment about 3 weeks after treatment vs untreated controls
Summary of the method: as §2

ECHCG [4] = assay: Pre-emergence action against ECHCG; format: in vivo, Echinochloa crus-galli; conditions: pre-emergence, dosage 320 g/ha, scored visually after 3 weeks vs untreated controls
Summary of the method: as §1

STEME [5] = assay: Post-emergence action against STEME; format: in vivo, Stellaria media; conditions: post-emergence, dosage 80 g/ha
Summary of the method: as §2

PHBPU [6] = assay: Pre-emergence action against PHBPU; format: in vivo, Pharbitis purpurea; conditions: Dosage 320 g/ha, pre-emergence
Summary of the method: as §1

MATIN [7] = assay: Pre-emergence action against MATIN; format: in vivo, Matricaria inodora; conditions: Dosage 320 g/ha, pre-emergence
Summary of the method: as §1

LOLRI = assay: Pre-emergence action against LOLRI; format: in vivo, Lolium rigidum; conditions: dosage 320 g/ha, scored visually after 3 weeks vs untreated controls
Summary of the method: as §1

AMARE [8] = assay: Post-emergence action against AMARE; format: in vivo, Amaranthus retroflexus; conditions: post-emergence, dosage 80 g/ha, visual assessment about 3 weeks after treatment vs untreated controls
Summary of the method: as §2

AMARE [9] = assay: Pre-emergence action against AMARE; format: in vivo, Amaranthus retroflexus; conditions: pre-emergence, dosage 320 g/ha, scored visually after 3 weeks vs untreated controls
Summary of the method: as §1

ALOMY [10] = assay: Pre-emergence action against ALOMY; format: in vivo, Alopecurus myosuroides; conditions: dosage 320 g/ha, pre-emergence, scored visually after 3 weeks vs untreated controls, 100% = plants have died, 0% = like control plants
Summary of the method: as §1

VIOTR [11] = assay: Pre-emergence action against VIOTR; format: in vivo, Viola tricolor; conditions: Dosage 320 g/ha, pre-emergence
Summary of the method: as §1

DIGSA [12] = assay: Pre-emergence action against DIGSA; format: in vivo, Digitaria sanguinalis; conditions: dosage 320 g/ha, scored visually after 3 weeks vs untreated controls
Summary of the method: as §1

SETVI [13] = assay: Pre-emergence action against SETVI; format: in vivo, Setaria viridis; conditions: pre-emergence, dosage 320 g/ha, scored visually after 3 weeks vs untreated controls
Summary of the method: as §1

PHBPU [14] = assay: Post-emergence action against PHBPU; format: in vivo, Pharbitis purpurea; conditions: post-emergence, dosage 80 g/ha
Summary of the method: as §2

VERPE [15] = assay: Post-emergence action against VERPE; format: in vivo, Veronica persica; conditions: dosage 80 g/ha
Summary of the method: as §2

ECHCG [16] = assay: Post-emergence action against ECHCG; format: in vivo, Echinochloa crus-galli; conditions: post-emergence, dosage 80 g/ha, visual assessment about 3 weeks after treatment vs untreated controls
Summary of the method: as §2

AVEFA [17] = assay: Post-emergence action against AVEFA; format: in vivo, Avena fatua; conditions: post-emergence, dosage 80 g/ha, visual assessment about 3 weeks after treatment vs untreated controls
Summary of the method: as §2

ABUTH [18] = assay: Post-emergence action against ABUTH; format: in vivo, Abutilon theophrasti; conditions: post-emergence, dosage 80 g/ha, visual assessment about 3 weeks after treatment vs untreated controls
Summary of the method: as §2

ALOMY [19] = assay: Post-emergence action against ALOMY; format: in vivo, Alopecurus myosuroides; conditions: Dosage 80 g/ha, post-emergence
Summary of the method: as §2

STEME [20] = assay: Pre-emergence action against STEME; format: in vivo, Stellaria media; conditions: Dosage 320 g/ha, pre-emergence
Summary of the method: as §1

DIGSA [21] = assay: Post-emergence action against DIGSA; format: in vivo, Digitaria sanguinalis; conditions: dosage 80 g/ha, visual assessment about 3 weeks after treatment vs untreated controls
Description: Seeds of monocotyledonous and dicotyledonous weed and crop plants are laid out in sandy loam soil in wood-fiber pots, covered with soil and cultivated in a greenhouse under good growth conditions. 2 to 3 weeks after sowing, the test plants are treated at the one-leaf stage. The compounds of the invention, formulated in the form of wettable powders (WP) or as emulsion concentrates (EC), are then sprayed onto the green parts of the plants in the form of an aqueous suspension or emulsion at a water application rate equating to […], with addition of 0.2% wetting agent. After the test plants have been left to stand in the greenhouse under optimal growth conditions for about 3 weeks, the action of the preparations is assessed visually in comparison to untreated controls (herbicidal action in percent (%): 100% activity=the plants have died, 0% activity=like control plants). […] At the same time, inventive compounds leave Gramineae crops such as barley, wheat, rye, millet/Sorghum, corn or rice virtually undamaged when applied post-emergence, even at high active ingredient dosages. In addition, some substances are also harmless to dicotyledonous crops such as soya, cotton, oilseed rape, sugar beet or potatoes. Some of the compounds according to the invention have high selectivity and are therefore suitable for controlling unwanted vegetation in agricultural crops by the post-emergence method. The data of Tables B18 to B34 below illustrate, in an exemplary manner, the […] herbicidal action of the compounds according to the invention, the herbicidal activity being stated in percent.

SETVI [22] = assay: Post-emergence action against SETVI; format: in vivo, Setaria viridis; conditions: post-emergence, dosage 80 g/ha, visual assessment about 3 weeks after treatment vs untreated controls
Summary of the method: as §2

ABUTH [23] = assay: Pre-emergence action against ABUTH; format: in vivo, Abutilon theophrasti; conditions: pre-emergence, dosage 320 g/ha, scored visually after 3 weeks vs untreated controls
Summary of the method: as §1

AVEFA [24] = assay: Pre-emergence action against AVEFA; format: in vivo, Avena fatua; conditions: dosage 320 g/ha, scored visually after 3 weeks vs untreated controls
Summary of the method: as §1

POLCO = assay: Pre-emergence action against POLCO; format: in vivo, Polygonum convolvulus; conditions: Fallopia convolvulus, 504 h; Dosage 320 g/ha, pre-emergence
Summary of the method: as §1

HORMU = assay: Pre-emergence action against HORMU; format: in vivo, Hordeum murinum; conditions: Hordeum murinum, 504 h, Dosage 320 g/ha
Summary of the method: as §1

Cc1c(C(=O)Nc2nnnn2C)ccc(C(F)(F)F)c1C(=O)CCl [1-22]
Pre-emergence action against VERPE (VERPE [1]): 100% | Post-emergence action against VIOTR (VIOTR [2]): 90 | Post-emergence action against MATIN (herbicidal action in percent) (MATIN [3]): 90% | Pre-emergence action against ECHCG (herbicidal activity) (ECHCG [4]): 100% | Post-emergence action against STEME (STEME [5]): 90 | Pre-emergence action against PHBPU (PHBPU [6]): 90% | Pre-emergence action against MATIN (MATIN [7]): 100% | Pre-emergence action against LOLRI (herbicidal activity) (LOLRI): 100% | Post-emergence action against AMARE (herbicidal action in percent) (AMARE [8]): 90% | Pre-emergence action against AMARE (herbicidal activity) (AMARE [9]): 100% | Pre-emergence action against ALOMY (herbicidal activity in percent) (ALOMY [10]): 90% | Pre-emergence action against VIOTR (VIOTR [11]): 100% | Pre-emergence action against DIGSA (herbicidal activity) (DIGSA [12]): 100% | SETVI (Table B8, pre-emergence herbicidal activity) (SETVI [13]): 100% | Post-emergence action against PHBPU (PHBPU [14]): 90 | Post-emergence action against VERPE (VERPE [15]): 80 | Post-emergence action against ECHCG (herbicidal action in percent) (ECHCG [16]): 90% | Post-emergence action against AVEFA (herbicidal action in percent) (AVEFA [17]): 90% | Post-emergence action against ABUTH (herbicidal action in percent) (ABUTH [18]): 90% | Post-emergence action against ALOMY (ALOMY [19]): 90% | Pre-emergence action against STEME (STEME [20]): 100% | Post-emergence action against DIGSA (herbicidal action in percent) (DIGSA [21]): 100% | Post-emergence action against SETVI (herbicidal action in percent) (SETVI [22]): 90% | Pre-emergence action against ABUTH (herbicidal activity) (ABUTH [23]): 100% | Pre-emergence action against AVEFA (herbicidal activity) (AVEFA [24]): 100%

CC(=O)C(=O)c1c(C(F)(F)F)ccc(C(=O)Nc2nnnn2C)c1Cl [1-146]
pest or weed control at 320 g/ha (VERPE [1]; Veronica persica, 504 h): 90% | pest or weed control at 80 g/ha (VIOTR [2]; Viola tricolor, 504 h): 90% | pest or weed control at 80 g/ha (MATIN [3]; Tripleurospermum inodorum, 504 h, read-out: Post-emergence action against MATIN (herbicidal action in percent)): 90% | pest or weed control at 320 g/ha (ECHCG [4]; Echinochloa crus-galli, 504 h, read-out: Pre-emergence action against ECHCG (herbicidal activity)): 100% | pest or weed control at 80 g/ha (STEME [5]; Stellaria media, 504 h): 100% | pest or weed control at 320 g/ha (PHBPU [6]; Ipomoea purpurea, 504 h): 90% | pest or weed control at 320 g/ha (MATIN [7]; Tripleurospermum inodorum, 504 h): 100% | pest or weed control at 320 g/ha (POLCO): 80% | pest or weed control at 80 g/ha (AMARE [8]; Amaranthus retroflexus, 504 h, read-out: Post-emergence action against AMARE (herbicidal action in percent)): 100% | pest or weed control at 320 g/ha (AMARE [9]; Amaranthus retroflexus, 504 h, read-out: Pre-emergence action against AMARE (herbicidal activity)): 100% | pest or weed control at 320 g/ha (ALOMY [10]; Alopecurus myosuroides, 504 h, read-out: Pre-emergence action against ALOMY (herbicidal activity in percent)): 90% | pest or weed control at 320 g/ha (VIOTR [11]; Viola tricolor, 504 h): 100% | Pre-emergence action against DIGSA (herbicidal activity) (DIGSA [12]): 100% | pest or weed control at 320 g/ha (SETVI [13]; Setaria viridis, 504 h, read-out: SETVI (Table B8, pre-emergence herbicidal activity)): 100% | pest or weed control at 80 g/ha (PHBPU [14]; Ipomoea purpurea, 504 h): 80% | pest or weed control at 80 g/ha (VERPE [15]; Veronica persica, 504 h): 90% | pest or weed control at 80 g/ha (ECHCG [16]; Echinochloa crus-galli, 504 h, read-out: Post-emergence action against ECHCG (herbicidal action in percent)): 100% | pest or weed control at 80 g/ha (ABUTH [18]; Abutilon theophrasti, 504 h, read-out: Post-emergence action against ABUTH (herbicidal action in percent)): 100% | pest or weed control at 320 g/ha (STEME [20]; Stellaria media, 504 h): 100% | Post-emergence action against DIGSA (herbicidal action in percent) (DIGSA [21]): 80% | pest or weed control at 320 g/ha (HORMU): 80% | pest or weed control at 80 g/ha (SETVI [22]; Setaria viridis, 504 h, read-out: Post-emergence action against SETVI (herbicidal action in percent)): 100% | pest or weed control at 320 g/ha (ABUTH [23]; Abutilon theophrasti, 504 h, read-out: Pre-emergence action against ABUTH (herbicidal activity)): 100% | pest or weed control at 320 g/ha (AVEFA [24]; Avena fatua, 504 h, read-out: Pre-emergence action against AVEFA (herbicidal activity)): 90%
